# Laboratory results taken from patent US20100185419A1, “ALGORITHM FOR DESIGNING IRREVERSIBLE INHIBITORS” (Avila Therapeutics, Inc., priority 2008, published 2010).
# How the values were obtained:
# HCV NS3/4A wild type = biological target: T1, HCV NS3/4A wild type (Hepatitis C virus genotype 1b, UniProt P26662); assay: Mass spectral analysis of intact HCV NS3/4A wild type protease; assay type: binding; details: 10-fold excess of compound, 1 hr to 3 hrs, MALDI-TOF
# T1 construct: The single-chain proteolytic domain (NS4A21-32-GSGS-NS33-631) was cloned into pET-14b; His tag; made in house; host or cells: Escherichia coli BL21
# T1 sequence (P26662 1013-1207, looked up, natural form): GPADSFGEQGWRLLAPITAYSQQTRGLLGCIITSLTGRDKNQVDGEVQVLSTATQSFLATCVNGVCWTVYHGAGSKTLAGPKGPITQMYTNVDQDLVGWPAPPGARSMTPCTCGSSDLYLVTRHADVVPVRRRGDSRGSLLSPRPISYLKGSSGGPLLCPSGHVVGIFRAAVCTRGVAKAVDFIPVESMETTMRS
# Procedure: Mass spectrometric analysis of HCV in the presence of Compound 5 was performed using the following protocol: HCV NS3/4A wild type (wt) was incubated for 1 hr at a 10× fold access of Compound 5 to protein. 2 μl aliquots of the samples were diluted with 10 μl of 0.1% TFA prior to micro C4 ZipTipping directly onto the MALDI target using Sinapinic acid as the desorption matrix (10 mg/ml in 0.1% TFA:Acetonitrile 50:50). The instrument was set in linear mode using a pulsed extraction setting of 24,500 and apomyoglobin as the standard to calibrate the instrument.
# 100 pmols of HCV wild type (Bioenza CA) was incubated with compound for 1 hr and 3 hrs at 10-fold access of Compound 6 to protein. 1 μl aliquots of the samples (total volume of 4.24 ul) were diluted with 10 μl of 0.1% TFA prior to micro C4 ZipTipping directly onto the MALDI target using Sinapinic acid as the desorption matrix (10 mg/ml in 0.1% TFA:Acetonitrile 50:50). Analyses were performed on a Shimadzu Biotech Axima TOF^2 (Shimadzu Instruments) matrix-assisted-laser desorption/ionization Time-of-Flight (MALDI-TOF) mass spectrometer.
# HCV NS3/4A 1b protease = HCV NS3/4A 1b protease (Hepatitis C virus genotype 1b, UniProt P26662); assay: biochemical
# Sequence of HCV NS3/4A 1b protease (P26662 1027-1208): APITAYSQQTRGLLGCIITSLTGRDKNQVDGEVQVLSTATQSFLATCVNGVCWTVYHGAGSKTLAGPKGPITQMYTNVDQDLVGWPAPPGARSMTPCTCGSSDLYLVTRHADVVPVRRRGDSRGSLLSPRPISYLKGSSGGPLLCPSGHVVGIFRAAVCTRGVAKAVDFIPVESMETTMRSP
# Sequence of HCV NS3/4A 1b protease (P26662 1658-1711): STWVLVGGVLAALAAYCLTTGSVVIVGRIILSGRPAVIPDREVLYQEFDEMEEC
# Procedure: An HCV Protease FRET Assay for HCV NS3/4A 1b Enzyme (IC50_APP) was used. The following protocol was used to generate “apparent” IC50 (IC50_APP) values. […] Protease reactions were immediately started after enzyme addition with the addition of 45 μL of the FRET substrate and monitored for 60-90 minutes at λex485/λem520 in a Synergy4 plate reader from BioTek (Winooski, Vt.).
# Btk = biological target: T2, Btk (Homo sapiens, UniProt Q06187); assay: Omnia assay for potency against Btk; details: biochemical assay; read-out: IC50 Btk kinase
# T2 construct: purchased Invitrogen
# T2 sequence (Q06187 whole entry): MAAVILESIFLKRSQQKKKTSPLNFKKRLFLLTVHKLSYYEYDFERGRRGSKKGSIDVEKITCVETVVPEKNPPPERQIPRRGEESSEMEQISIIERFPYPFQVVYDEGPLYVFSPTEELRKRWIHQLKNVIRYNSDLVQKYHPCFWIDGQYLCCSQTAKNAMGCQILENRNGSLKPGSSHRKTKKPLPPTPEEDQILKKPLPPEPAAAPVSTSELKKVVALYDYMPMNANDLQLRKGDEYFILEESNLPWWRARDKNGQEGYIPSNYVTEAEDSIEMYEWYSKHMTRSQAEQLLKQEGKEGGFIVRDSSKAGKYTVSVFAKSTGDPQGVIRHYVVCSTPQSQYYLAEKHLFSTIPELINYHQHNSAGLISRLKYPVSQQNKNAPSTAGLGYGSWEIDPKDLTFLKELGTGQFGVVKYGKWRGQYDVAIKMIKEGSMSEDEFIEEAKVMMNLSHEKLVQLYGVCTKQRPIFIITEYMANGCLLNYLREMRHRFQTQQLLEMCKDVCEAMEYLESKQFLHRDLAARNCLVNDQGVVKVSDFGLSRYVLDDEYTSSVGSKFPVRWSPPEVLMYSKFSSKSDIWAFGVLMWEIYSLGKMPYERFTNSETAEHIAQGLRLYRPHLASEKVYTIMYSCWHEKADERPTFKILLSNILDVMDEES
# Procedure: The protocol below describes continuous-read kinase assays to measure inherent potency of compounds against active forms of Btk enzyme. The mechanics of the assay platform are best described by the vendor (Invitrogen, Carlsbad, Calif.) on the world wide web at invitrogen.com/site/us/en/home/Products-and-Services/Applications/Drug-Discovery/Target-and-Lead-Identification-and-Validation/KinaseBiology/KB-Misc/Biochemical-Assays/Omnia-Kinase-Assays.html. Briefly, 10× stocks of 5 nM Btk from Invitrogen, 1.13×40 μM ATP (AS001A) and 10 μM (ATP KMapp ˜[…]) Tyr-Sox conjugated peptide substrates (KCZ 1001) were prepared in 1× kinase reaction buffer consisting of 20 mM Tris, pH 7.5, 5 mM MgCl2, 1 mM EGTA, 5 mM β-glycerophosphate, 5% glycerol (10× stock, KBOO2A) and 0.2 mM DTT (DS001A).
# [1] = system: Btk signaling in Ramos cells; assay: Btk Ramos cellular assay (PLCγ2 phosphorylation); assay type: cell-based; details: Homo sapiens, 1 μM compound
# Procedure: Compounds CNX-85 was assayed in Ramos human Burkitt lymphoma cells. Ramos cells were grown in suspension in T225 flasks, spun down, resuspended in 50 mls serum-free media and incubated for 1 hour. Compound was added to Ramos cells in serum free media to a final concentration of 1, 0.1, 0.01, or 0.001 μM. Ramos cells were incubated with compound for 1 hour, washed again and resuspended in 100 ul serum-free media. Cells were then stimulated with 1 μg of goat F(ab′)2 Anti-Human IgM and incubated on ice for 10 minutes to activate B cell receptor signaling pathways. After 10 minutes, the cells were washed once with PBS and then lysed on ice with Invitrogen Cell Extraction buffer. 16 μg total protein from lysates were loaded on gel and blots were probed for phosphorylation of the Btk substrate PLCγ2.
IC50 (Btk),SMILES,adduct formation with HCV protease wild type (HCV NS3/4A wild type),IC50 (HCV NS3/4A 1b protease),inhibition at 1 µM [1]
,"C=C[C@@H]1C[C@]1(NC(=O)[C@@H]1C[C@@H](Oc2cc(-c3ccccc3)nc3cc(OC)ccc23)CN1C(=O)[C@H](CCC(=O)C=C(C)C)NC(=O)OC(C)(C)C)C(=O)NS(=O)(=O)C1CC1 [Compound 8, tert-butyl-(S)-1-((2S,4R)-2-((1R,2S)-1-(cyclopropylsulfonylcarbamoyl)-2-vinylcyclopropylcarbamoyl)-4-(7-methoxy-2-phenylquinolin-4-yloxy)pyrrolidin-1-yl)-7-methyl-1,5-dioxooct-6-en-2-ylcarbamate]",adduct of HCV protease with the compound was formed,< 0.5 nM,
1.8 nM,"C=CC(=O)Nc1cccc(Nc2cc(Nc3ccc(Oc4ccccc4)cc3)ncn2)c1 [Compound 10, N-{3-[6-(4-phenoxyphenylamino)-pyrimidin-4-ylamino]phenyl}-2 propenamide]",,,85%
